In patent US12440451B2, “Compositions and methods using an epigenetic inhibitor” (DANA-FARBER CANCER INSTITUTE, INC., priority 2017, dated 2025):

Experiments:
Assay type in all cases: cell-based, mouse
OT-I+ CD8+ T cells [1] = experiment: APC-free T cell activation with anti-CD3 and anti-CD28 antibodies, flow cytometry; conditions: anti-CD3 and anti-CD28 or BMDC+SIINFEKL activation; 7 days; relative to DMSO
From the text: It was important to determine whether the observed effect of RGFP966 on CD8^+ T cells post-activation was due to the drug acting on T cells, on the antigen-presenting cells, or both. To do so, the effect of RGFP966 treatment on CD8^+ T cells activated was compared in parallel using either antigen-pulsed BMDCs or antibodies against CD3 and CD28. The latter method of activating T cells is free of APCs and allowed determination of whether the effect of RGFP966 required the presence of APCs.
96-well tissue culture plates were coated with 10 μg/ml α-CD3 antibodies overnight at 4° C., then washed with PBS prior to addition of OT-I^+ CD8^+ T cells (2×10^5/well) and α-CD28 antibody (2 μg/ml) (labeled as anti-CD3 and anti-CD28). OT-I^+ CD8^+ T cells from the same batch of cells were also activated in parallel on antigen-loaded BMDCs (labeled as BMDC+SIINFEKL (SEQ ID NO: 1)) were prepared as described above. T cells were activated for 7 days, with media changes on days 3 and 5, then collected for flow cytometry phenotype analysis.

OT-I+ CD8+ T cells [2] = experiment: in vitro CD8+ T cell activation assay with SIINFEKL-pulsed BMDCs, flow cytometry for effector markers
From the text: To screen for compounds that may inhibit epigenetic enzymes, an in vitro model of T cell activation by antigen-loaded antigen presenting cells (APCs) was used. CD8^+ T cells were harvested from OT-I T cell receptor transgenic mice. OT-I mice are transgenic for the mouse Tera-V2 and Torb-V5 genes, which form a T cell receptor that recognizes the SIINFEKL peptide (SEQ ID NO: 1) epitope of chicken ovalbumin presented in the context of the Kb MHC I molecule. This allows testing of T cell activation in response to addition of SIINFEKL peptide (SEQ ID NO: 1). The APCs used for T cell activation were bone marrow-derived dendritic cells (BMDCs) harvested from congenic H-2b-MHC haplotype C57BL/6 (B6) mice.
To set up the screen, BMDCs were harvested, irradiated, and seeded into 96-well tissue culture plates (5×10^4/well) in the presence of 200 nM SIINFEKL peptide (SEQ ID NO: 1) for antigen loading. OT-I^+ CD8^+ T cells were freshly isolated from peripheral lymphoid organs of OT-I mice and added to the BMDCs in 96-well plates (5×10^4/well). One hundred epigenetic inhibitor drugs from a custom library provided by Dr. David Fisher (Massachusetts General Hospital, Boston, MA) were added separately to individual wells for a final concentration of 10 μM or 1 μM. Negative (non-drug treated) wells were given an equivalent volume of DMSO vehicle.
The OT-I^+ CD8^+ T cells were cultured for 10 days at 37° C., with media changes at days 3, 5, and 7. After 10 days, T cells were collected from the 96-well plates and analyzed by flow cytometry for markers of cell viability, effector differentiation, cytokine secretion, and cytotoxicity.
For each marker assessed, a change of greater than two standard deviations from the mean of the negative control wells was deemed a significant change.
To validate the phenotypic changes observed with RGFP966 treatment during the screen, the in vitro activation assay was repeated to compare T cells treated with RGFP966 with vehicle-treated control cells. OT-I^+ CD8^+ T cells were activated with SIINFEKL-pulsed BMDCs as in Example 1 for 7 days, with media changes at days 3 and 5. T cells were then collected and analyzed by flow cytometry for markers of effector differentiation (CD25, PD-1), cytokine secretion (IFN-γ, TNF-α, IL-2), and cytotoxicity (granzyme B).
An additional study was done on the effects of RGFP966 on T cell expression of phenotypic markers of CD8^+ effector differentiation. T cells were treated with RGFP966 and vehicle using the in vitro activation assay and flow cytometry techniques described above. OT-I^+ CD8^+ T cells were activated with SIINFEKL-pulsed BMDCs (see above) for 7 days, with media changes at days 3 and 5. T cells were collected and analyzed by flow cytometry for markers of effector differentiation (CD25, PD-1), cytokine secretion (IFN-γ, TNF-α, IL-2), and cytotoxicity (granzyme B).
OT-I^+ CD8^+ T cells were activated with antigen-pulsed BMDCs as described above, and dosed with RGFP966 for different durations of time as depicted in the schematic diagram of FIG. 7A: dose duration A of RGFP966 exposure was from day 0 to day 7 of co-culture: dose duration B of RGFP966 exposure was from day 3 to day 7 of co-culture: dose duration C of RGFP966 exposure was from day 5 to day 7 of co-culture: dose duration D of RGFP966 exposure was from day 0 to day 3 of co-culture: dose duration E of RGFP966 exposure was from day 0 to day 5 of co-culture. These time windows (dose durations A-E) correspond roughly to the early (day 0 to 3), mid-(day 3 to 5), and late (day 5 to 7) phases of T cell activation described in the literature.
T cells were thoroughly washed with culture media during media changes at a transition point (i.e. drug to no drug or vice versa). T cells in samples D and E (light gray arrows) were re-suspended in conditioned media from parallel cultures of DMSO vehicle-treated T cells in order to maintain similar levels of T cell activating cytokines in the media. […]

OT-I+ CD8+ T cells [3] = experiment: proliferation of activated T cells (total number of live cells by flow cytometry); conditions: FIG. 3
Experimental: T cells treated with RGFP966 also show increased proliferation relative to untreated T cells. FIG. 3 is a bar chart the total number of live cells detected in flow cytometry for activated OT-I^+ CD8^+ T cells that have been treated with 10 μM, 1 μM RGFP966, and no RGFP966 (vehicle control).

[4] = 10 μM, 7 days activation, relative to DMSO-treated cells

Nc1cc(F)ccc1NC(=O)/C=C/c1cnn(C/C=C/c2ccccc2)c1 [RGFP966]
T cell effector phenotype (CD25, granzyme B, IFN-γ, TNF-α, IL-2) (OT-I+ CD8+ T cells [1]): augmented their T cell effector phenotype across both methods of T cell activation | TNF-α expression measured in pg/mL (OT-I+ CD8+ T cells [2]; 10 μM compared with 1 μM or vehicle, FIG. 2J): increased expression of the activation marker TNF-α | CD25 expression (OT-I+ CD8+ T cells [2]; [4]): higher levels | IFN-γ expression (OT-I+ CD8+ T cells [2]; [4]): higher levels | IL-2 expression (OT-I+ CD8+ T cells [2]; [4]): higher levels | PD-1 expression (OT-I+ CD8+ T cells [2]; [4]): higher levels | TNF-α expression (OT-I+ CD8+ T cells [2]; [4]): higher levels | granzyme B expression (OT-I+ CD8+ T cells [2]; [4]): more of the cytotoxic effector protein granzyme B | expression of CD25 and TNF-α when the drug is washed out midway (OT-I+ CD8+ T cells [2]; 10 μM, exposure day 0 to 3 or day 0 to 5, relative to all 7 days): did not reduce the expression of CD25 and TNF-α | expression of markers of T cell activation (CD25, TNF-α) when dosing starts at later time points (OT-I+ CD8+ T cells [2]; 10 μM, exposure from day 3 or day 5 to day 7): reduce the expression of markers of T cell activation | expression of CD44 and CD62L (OT-I+ CD8+ T cells [2]; 10 μM, flow cytometry, FIG. 2A, vs vehicle): high expression of CD62L and intermediate to high expression of CD44 | CD107a positive cells (OT-I+ CD8+ T cells [2]; 10 μM, flow cytometry, FIG. 2B, vs vehicle): many more CD107a positive cells than the vehicle controls | TNF-α positive cells (OT-I+ CD8+ T cells [2]; 10 μM, flow cytometry, FIG. 2C, vs untreated): larger number of TNF-α positive cells than the untreated T cells | effector phenotype of CD8+ T cells in the secondary screen (OT-I+ CD8+ T cells [2]; 10 μM, screen of HDAC inhibitors): consistently augmented the effector phenotype | dose sufficient to augment the effector phenotype of CD8+ T cells (OT-I+ CD8+ T cells [2]; in vitro activation, titration 0, 1, 3, 5 μM): 3 µM | dose at which the dose-dependent augmentation of the T cell effector phenotype begins (OT-I+ CD8+ T cells [2]; titration 0, 1, 3, 5 μM, 7 days): greater than 1 μM | percentage of actively proliferating cells measured by Ki-67 expression (OT-I+ CD8+ T cells [2]; with increasing drug dose, titration 0, 1, 3, 5 μM): reduction in the percentage of actively proliferating cells | T cell proliferation (total number of live cells) (OT-I+ CD8+ T cells [3]; 1 μM): increasing T cell proliferation over vehicle control | T cell proliferation (total number of live cells) (OT-I+ CD8+ T cells [3]; 10 μM): increasing T cell proliferation as compared to T cells treated with 1 μM RGFP966
